Laboratory results taken from patent US9120804B2, “8-substituted 2-amino-[1,2,4] triazolo [1, 5-A] pyrazines as Syk tryrosine kinase inhibitors and GCN2 serin kinase inhibitors” (Merck Patent GmbH, priority 2012, dated 2015).
pIC50: −log10 of the molar value.

Assays:
[1] = biological target: T1, SYK (Homo sapiens, UniProt P43405); assay: SYK flash plate assay (enzyme assay); assay type: biochemical
T1 construct: 2.5 nM SYK, 400 nM Biotin-Aha-Aha-KEDPDYEWPSAKK
Method in brief: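 Radiometric Flashplate format: biotinylated peptide substrate (400 nM) and 33P-labelled ATP (10 μM) react with 2.5 nM enzyme for 1 hour at 30 °C in Hepes buffer, pH 7.5. After EDTA quench and washing, counts are taken; staurosporine defines non-specific signal, and IC50 values are derived.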

[2] = biological target: GCN2 (Homo sapiens, UniProt Q9P2K8); assay: GCN2 enzyme assay; assay type: biochemical
GCN2, sequence (Q9P2K8 whole entry): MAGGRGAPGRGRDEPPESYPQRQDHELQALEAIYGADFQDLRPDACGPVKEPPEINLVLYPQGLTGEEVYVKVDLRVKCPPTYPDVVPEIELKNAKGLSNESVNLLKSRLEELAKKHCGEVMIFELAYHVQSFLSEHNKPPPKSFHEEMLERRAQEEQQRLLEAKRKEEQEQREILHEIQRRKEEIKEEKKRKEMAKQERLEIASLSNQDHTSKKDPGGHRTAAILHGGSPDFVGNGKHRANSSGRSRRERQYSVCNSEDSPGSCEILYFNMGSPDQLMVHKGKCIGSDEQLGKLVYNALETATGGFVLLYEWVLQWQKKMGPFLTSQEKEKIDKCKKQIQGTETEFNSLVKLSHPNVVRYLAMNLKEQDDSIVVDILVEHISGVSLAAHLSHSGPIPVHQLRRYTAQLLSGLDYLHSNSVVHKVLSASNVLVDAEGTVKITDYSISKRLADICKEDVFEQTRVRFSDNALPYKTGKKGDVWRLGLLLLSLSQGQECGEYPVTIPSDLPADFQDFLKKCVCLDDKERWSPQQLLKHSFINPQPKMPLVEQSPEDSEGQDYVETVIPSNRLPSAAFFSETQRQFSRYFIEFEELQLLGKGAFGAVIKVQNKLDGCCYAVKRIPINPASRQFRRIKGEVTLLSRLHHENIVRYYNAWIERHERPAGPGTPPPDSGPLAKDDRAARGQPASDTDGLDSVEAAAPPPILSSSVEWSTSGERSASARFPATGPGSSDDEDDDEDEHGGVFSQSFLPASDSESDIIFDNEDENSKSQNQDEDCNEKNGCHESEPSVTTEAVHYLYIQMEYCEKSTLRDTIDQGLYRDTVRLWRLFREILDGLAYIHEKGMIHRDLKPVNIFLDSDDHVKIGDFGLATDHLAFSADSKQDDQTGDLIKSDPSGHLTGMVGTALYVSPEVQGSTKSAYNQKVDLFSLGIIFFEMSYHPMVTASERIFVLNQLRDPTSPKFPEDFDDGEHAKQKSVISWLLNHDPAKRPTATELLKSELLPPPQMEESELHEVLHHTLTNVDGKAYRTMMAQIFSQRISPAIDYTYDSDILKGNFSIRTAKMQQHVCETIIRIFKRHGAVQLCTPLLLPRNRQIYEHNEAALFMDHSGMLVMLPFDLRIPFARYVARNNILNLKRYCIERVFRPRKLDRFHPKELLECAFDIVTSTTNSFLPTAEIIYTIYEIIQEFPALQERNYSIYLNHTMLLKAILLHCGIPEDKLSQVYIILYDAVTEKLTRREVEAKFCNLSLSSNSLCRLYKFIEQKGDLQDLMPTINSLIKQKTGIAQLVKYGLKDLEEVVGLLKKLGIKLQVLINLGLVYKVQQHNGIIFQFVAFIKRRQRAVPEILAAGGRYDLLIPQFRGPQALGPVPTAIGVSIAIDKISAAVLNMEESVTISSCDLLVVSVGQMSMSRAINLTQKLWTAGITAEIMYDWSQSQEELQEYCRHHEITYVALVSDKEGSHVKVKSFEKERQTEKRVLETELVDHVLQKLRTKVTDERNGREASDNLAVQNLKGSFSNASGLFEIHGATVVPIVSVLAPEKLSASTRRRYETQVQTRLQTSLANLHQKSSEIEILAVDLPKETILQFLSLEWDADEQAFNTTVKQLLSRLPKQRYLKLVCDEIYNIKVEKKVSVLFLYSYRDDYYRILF

| SMILES | pIC50 [1] | pIC50 [2] |
| --- | --- | --- |
| COc1cc(Nc2nc3c(N4CCC(O)(CCO)CC4)nccn3n2)cc(OC)c1 [C49, 1-[2-(3,5-dimethoxy-phenylamino)-[1,2,4]triazolo[1,5-a]pyrazin-8-yl]-4-(2-hydroxy-ethyl)-piperidin-4-ol] | 5.52 to 6.52 | 4.30 to 5.52 |
| NC(=O)C1(c2ccc(Nc3nc4c(-c5cn[nH]c5)nccn4n3)cc2)CC1 [C66, 1-{4-[8-(1H-pyrazol-4-yl)-[1,2,4]triazolo[1,5-a]pyrazin-2-ylamino]-phenyl}-cyclopropanecarboxylic acid amide] | 6.52 to 7.00 | 4.30 to 5.52 |
| Cn1cc(-c2nccn3nc(Nc4ccc5cnn(C)c5c4)nc23)cn1 [C21, (1-Methyl-1H-indazol-6-yl)-[8-(1-methyl-1H-pyrazol-4-yl)-[1,2,4]triazolo[1,5-a]pyrazin-2-yl]-amine] | 5.52 to 6.52 | 4.30 to 5.52 |
| COc1cc(Nc2nc3c(N4CCN(C(=O)CO)CC4)nccn3n2)cc(OC)c1 [C56, 1-{4-[2-(3,5-dimethoxy-phenylamino)-[1,2,4]triazolo[1,5-a]pyrazin-8-yl]-piperazin-1-yl}-2-hydroxy-ethanone] | 5.52 to 6.52 | 4.30 to 5.52 |
| CC1(C)C(=O)Nc2cc(Nc3nc4c(-c5ccc(S(C)(=O)=O)cc5)nccn4n3)ccc21 [C70, 6-[8-(4-Methanesulfonyl-phenyl)-[1,2,4]triazolo[1,5-a]pyrazin-2-ylamino]-3,3-dimethyl-1,3-dihydro-indol-2-one] | 6.52 to 7.00 | 5.52 to 6.52 |
| Cc1nc2cc(Nc3nc4c(-c5ccc(CN6CCOCC6)c(F)c5)nccn4n3)ccc2[nH]1 [C59, [8-(3-fluoro-4-morpholin-4-ylmethyl-phenyl)-[1,2,4]triazolo[1,5-a]pyrazin-2-yl]-(2-methyl-1H-benzoimidazol-5-yl)-amine] | 4.30 to 5.52 | 5.52 to 6.52 |
| COc1cc(Nc2nc3c(N4CCN(C)CC4c4ccccc4)nccn3n2)cc(OC)c1 (stereo not drawn) [C55, (3,5-dimethoxy-phenyl)-[8-(4-methyl-2-phenyl-piperazin-1-yl)-[1,2,4]triazolo[1,5-a]pyrazin-2-yl]-amine] | 5.52 to 6.52 | 4.30 to 5.52 |
| COc1ccc(Nc2nc3c(-c4cnn(C)c4)nccn3n2)cc1 [C2, (4-Methoxy-phenyl)-[8-(1-methyl-1H-pyrazol-4-yl)-[1,2,4]triazolo[1,5-a]pyrazin-2-yl]-amine] | 5.52 to 6.52 | 4.30 to 5.52 |
| Cc1nc2cc(Nc3nc4c(-c5ccc(CN6CCOCC6)cc5)nccn4n3)ccc2[nH]1 [C57, (2-methyl-1H-benzoimidazol-5-yl)-[8-(4-morpholin-4-ylmethyl-phenyl)-[1,2,4]triazolo[1,5-a]pyrazin-2-yl]-amine] | 4.30 to 5.52 | 5.52 to 6.52 |
| Cn1cc(-c2nccn3nc(Nc4ccc([S+](C)[O-])cc4)nc23)cn1 (stereo not drawn) [C32, (4-Methanesulfinyl-phenyl)-[8-(1-methyl-1H-pyrazol-4-yl)-[1,2,4]triazolo[1,5-a]pyrazin-2-yl]-amine] | 5.52 to 6.52 | 4.30 to 5.52 |
| COc1cc(Nc2nc3c(N4CCCC(C(=O)NCCO)C4)nccn3n2)cc(OC)c1 (stereo not drawn) [C45, 1-[2-(3,5-dimethoxy-phenylamino)-[1,2,4]triazolo[1,5-a]pyrazin-8-yl]-piperidine-3-carboxylic acid (2-hydroxy-ethyl)-amide] | 4.30 to 5.52 | 4.30 to 5.52 |

Continued, values first:

| pIC50 [1] | pIC50 [2] | SMILES |
| --- | --- | --- |
| > 7.00 | 4.30 to 5.52 | CC1(C)C(=O)Nc2cc(Nc3nc4c(N5CCC[C@@H](N)C5)nccn4n3)ccc21 [C94, 6-[8-((R)-3-amino-piperidin-1-yl)-[1,2,4]triazolo[1,5-a]pyrazin-2-ylamino]-3,3-dimethyl-1,3-dihydro-indol-2-one] |
| 6.52 to 7.00 | 5.52 to 6.52 | CC(C)C(O)c1n[nH]c2cc(Nc3nc4c(-c5cnn(C)c5)nccn4n3)ccc12 (stereo not drawn) [C142, 2-methyl-1-{6-[8-(1-methyl-1H-pyrazol-4-yl)-[1,2,4]triazolo[1,5-a]pyrazin-2-ylamino]-1H-indazol-3-yl}-propan-1-ol] |
| 6.52 to 7.00 | 4.30 to 5.52 | Cn1cc(-c2nccn3nc(Nc4ccc5c(c4)NC(=O)C(C)(C)O5)nc23)cn1 [C80, 2,2-dimethyl-6-[8-(1-methyl-1H-pyrazol-4-yl)-[1,2,4]triazolo[1,5-a]pyrazin-2-ylamino]-4H-benzo[1,4]oxazin-3-one] |
| 6.52 to 7.00 | 4.30 to 5.52 | CC1(C)C(=O)Nc2cc(Nc3nc4c(N5CC[C@H](O)C5)nccn4n3)ccc21 [C83, 6-[8-((S)-3-hydroxy-pyrrolidin-1-yl)-[1,2,4]triazolo[1,5-a]pyrazin-2-ylamino]-3,3-dimethyl-1,3-dihydro-indol-2-one] |
| > 7.00 | 5.52 to 6.52 | Cn1cc(-c2nccn3nc(Nc4ccc5c(c4)NC(=O)OC5(C)C)nc23)cn1 [C114, 4,4-dimethyl-7-[8-(1-methyl-1H-pyrazol-4-yl)-[1,2,4]triazolo[1,5-a]pyrazin-2-ylamino]-1,4-dihydro-benzo[d][1,3]oxazin-2-one] |
| 5.52 to 6.52 | 4.30 to 5.52 | CN(c1nccn2nc(Nc3ccc4c(c3)NC(=O)C4(C)C)nc12)C1CCCNC1 (stereo not drawn) [C88, 3,3-dimethyl-6-[8-(methyl-piperidin-3-yl-amino)-[1,2,4]triazolo[1,5-a]pyrazin-2-ylamino]-1,3-dihydro-indol-2-one] |
| > 7.00 | 5.52 to 6.52 | Cn1cc(-c2nccn3nc(Nc4ccc5c(c4)NC(=O)CC5(C)C)nc23)cn1 [C144, 4,4-dimethyl-7-[8-(1-methyl-1H-pyrazol-4-yl)-[1,2,4]triazolo[1,5-a]pyrazin-2-ylamino]-3,4-dihydro-1H-quinolin-2-one] |
| 6.52 to 7.00 | 5.52 to 6.52 | Cn1cc(-c2nccn3nc(Nc4ccc5cc[nH]c5c4)nc23)cn1 [C111] |
| 6.52 to 7.00 | 4.30 to 5.52 | CC1(C)C(=O)Nc2cc(Nc3nc4c(N5CCC[C@H]5CO)nccn4n3)ccc21 [C84, 6-[8-((S)-2-hydroxymethyl-pyrrolidin-1-yl)-[1,2,4]triazolo[1,5-a]pyrazin-2-ylamino]-3,3-dimethyl-1,3-dihydro-indol-2-one] |
| > 7.00 | 4.30 to 5.52 | CC1(C)C(=O)Nc2cc(Nc3nc4c(N5CC6(COC6)C5)nccn4n3)ccc21 [C91, 3,3-dimethyl-6-[8-(2-oxa-6-aza-spiro[3.3]hept-6-yl)-[1,2,4]triazolo[1,5-a]pyrazin-2-ylamino]-1,3-dihydro-indol-2-one] |
| > 7.00 | 4.30 to 5.52 | CC1(C)C(=O)Nc2cc(Nc3nc4c(N5CCC6(CC(=O)NC6=O)C5)nccn4n3)ccc21 (stereo not drawn) [C95, 7-[2-(3,3-dimethyl-2-oxo-2,3-dihydro-1H-indol-6-ylamino)-[1,2,4]triazolo[1,5-a]pyrazin-8-yl]-2,7-diaza-spiro[4.4]nonane-1,3-dione] |
| 6.52 to 7.00 | 4.30 to 5.52 | CN(c1nccn2nc(Nc3ccc4c(c3)NC(=O)C4(C)C)nc12)C1CCOCC1 [C101, 3,3-dimethyl-6-{8-[methyl-(tetrahydro-pyran-4-yl)-amino]-[1,2,4]triazolo[1,5-a]pyrazin-2-ylamino}-1,3-dihydro-indol-2-one] |
| 6.52 to 7.00 | 5.52 to 6.52 | CC(C)C1(O)C(=O)Nc2cc(Nc3nc4c(-c5cnn(C)c5)nccn4n3)ccc21 (stereo not drawn) [C82, 3-hydroxy-3-isopropyl-6-[8-(1-methyl-1H-pyrazol-4-yl)-[1,2,4]triazolo[1,5-a]pyrazin-2-ylamino]-1,3-dihydro-indol-2-one] |
